Measurements reported in patent US7888118B2, “2-{2-[5-(3-chlorophenyl)]furanyl}-4,5-bis(4-methoxyphenyl)imidazole and methods for inducing differentiation of myoblasts or muscle fibers into neuron cells” (Industry-Academic Cooperation Foundation, Yonsei University, priority 2005, dated 2011).

Assays:
[1] = system: human single muscle fibers; test: Differentiation of isolated human muscle fibers into neuron cells; format: cell-based
Method: Single fibers of human skeletal muscle are obtained as described previously (In Vitro Cell Dev Biol Anim. 2002, 38, 66). A sample of skeletal muscle is dissected from the abductor hallucis muscle. The sample is collected and transported in single fiber culture media (Ham's F-10 medium supplemented with 10% FBS, 2% chick embryo extract and 1.5 μg/mL amphotericin B). The muscle sample is incubated in 10 mL single fiber culture media containing 0.1% collagenase in a 50 mL Falcon™ tube for 1 h at 37° C. Bundles of muscle fibers are carefully dissected using a scalpel. The bundles are laid in a Petri dish containing 10 mL single fiber culture media with 0.1% collagenase at 37° C. for 5 h. Isolation of single muscle fibers is carried out by repeatedly triturating the muscle sample with a wide-mouthed Pasteur pipette. Isolated muscle fibers that have not undergone hypercontraction (which renders them unsuitable for plating in culture dishes) are placed in matrigel-coated 6-well plates at a density of three fibers per well. Fibers are plated in one drop of single fiber culture media and allowed to attach for 6 h and then 1 mL of media is added to the culture. After 24 h, the media are changed to single fiber culture media without amphotericin B.
After 5 days, populations of satellite muscle precursor cells migrate from the fiber and begin to proliferate. […]

Murine myoblasts (C2C12) = test: Neurite outgrowth / neuron differentiation of myoblasts observed by light microscope; format: cell-based
Method: Murine myoblasts (C2C12) are usually cultured in RPMI 1640 or DMEM supplemented with 10% FBS, 50 units/mL penicillin and 50 μg/mL of streptomycin at 37° C. with 5% CO2 in air atmosphere.
For the small molecule screen, the cultured C2C12 cells are seeded in a 96-well plate at a density of 10^3 cells per well in culture media. After 24 h, the culture media are replaced with differentiation media (RPMI 1640 or DMEM containing 1% FBS, 50 units/mL penicillin and 50 μg/mL of streptomycin). Test compounds are then added at a final concentration of 5-10 μM. After 96 h incubation, morphological changes of cells are observed by a light microscope (Nikon Eclipse TE2000) to detect neurite outgrowth characteristic of neuron differentiation. To ascertain neuron differentiation, the cells are washed with PBS and loaded FM1-43 (a final concentration: 2 μM, Molecular Probes) dissolved in Ringer buffer containing 100 mM KCl. […] Fluorescent intensity of the treated cells (excitation wavelength: 470 nm, emission wavelength: 540 nm) is read on a fluorescent microplate reader (SpectraMax GeminiEM, Molecular Devices).
An imidazole library of about 300 compounds is added at a final concentration of 5-10 μM. […] Fluorescent intensity (excitation wavelength: 470 nm, emission wavelength: 540 nm) is read on a fluorescent microplate reader (SpectraMax GeminiEM, Molecular Devices).

Structure (SMILES): COc1ccc(-c2nc(-c3ccc(-c4cccc(Cl)c4)o3)[nH]c2-c2ccc(OC)cc2)cc1 [Neurodazine 1, 2-{2-[5-(3-chlorophenyl)]furanyl}-4,5-bis(4-methoxyphenyl)imidazole]
- differentiation of muscle fibers into neuron cells (FIG. 3) [1]: Differentiated neuron cells from muscle fibers
- differentiation of myoblasts into neuron cells (FIG. 2) (Murine myoblasts (C2C12)): Differentiated neuron cells from myoblasts
